One may read the IC50 as the concentration at which inhibition is half-maximal.

Structures are written as SMILES. Bounds are passed on as bounds.

The results in this text go back to paper PMC5645021 (Organic letters, 2014).

Holding throughout (assay type): cell-based
For data set [1], the target named is oncogenic mutant K-Ras (mGFP-K-RasG12 V) (Homo sapiens, UniProt P01116, G12V). Briefly: K-Ras PM mislocalization. The following applies: for K-Ras PM mislocalization Emax: maximum extent of mislocalization of K-Ras from the PM to the endomembrane, MDCK cells; for IC50: read-out: K-Ras PM mislocalization IC50, mGFP-K-RasG12V in intact MDCK cells.
The subject of the next data set is SW620. Briefly: MTT cytotoxicity, SW620. The following applies: read-out: MTT cytotoxicity SW620 IC50; colon cancer cell line SW620.
Another data set concerns SW620 Ad300. As to the kind of experiment: MTT cytotoxicity, SW620 Ad300. The following applies: for FR (fold resistance): IC50 ratio for SW620 Ad300 versus SW620; for IC50: read-out: MTT cytotoxicity SW620 Ad300 IC50, P-gp overexpressing daughter cell line SW620 Ad300; for FR (fold resistance), control study: SW620 Ad300 versus SW620.
The next data set relates to A549 versus H522. Briefly: Cytotoxicity toward K-Ras mutated versus non-mutated lung cancer cells. The following applies: human lung cancer cells.

Sequence of oncogenic mutant K-Ras (mGFP-K-RasG12 V) (P01116 1-188 isoform P01116-2 G12V): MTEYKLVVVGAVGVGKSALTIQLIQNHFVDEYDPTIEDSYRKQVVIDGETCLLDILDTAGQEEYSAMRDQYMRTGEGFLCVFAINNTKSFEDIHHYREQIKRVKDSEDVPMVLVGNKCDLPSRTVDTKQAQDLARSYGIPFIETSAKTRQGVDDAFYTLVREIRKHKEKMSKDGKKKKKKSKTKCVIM

Regarding `CCCC[C@H]1C(=O)O[C@H](C)[C@H](NC(=O)c2cccc(NC=O)c2O)C(=O)O[C@@H](C)[C@@H]1OC(=O)C(C)C` [compound 6, antimycin A4a, reference compound], in data set [1], the “K-Ras PM mislocalization Emax” value is listed as 0.79 ± 0.02 and the IC50 was determined as 3.7 ± 0.3 nM. Further, the IC50 with SW620 amounted to 120 nM. Also, in the data set with SW620 Ad300, the “FR (fold resistance)” value was 3.7 and the IC50 is 440 nM.

Turning to `CC(C)[C@@H]1OC(=O)[C@@H](NC(=O)c2cccc(NC=O)c2O)[C@H](C)OC(=O)[C@H](C(C)C)OC(=O)C(C)(C)[C@@H](O)[C@@H](Cc2ccccc2)OC1=O` [compound 2, neoantimycin F], in data set [1], the “K-Ras PM mislocalization Emax” value is reported as 0.56 ± 0.01 and the IC50 was determined as 9.9 ± 0.2 nM. Further, in the data set on SW620, the IC50 is 160 nM. Moreover, in the data set on SW620 Ad300, the “FR (fold resistance)” value was 3.8 and the IC50 was found to be 610 nM.

Regarding `COc1cccc2c1C(=O)c1c(O)c3c(c(O)c1C2=O)C[C@@](O)(C(=O)CO)C[C@@H]3O[C@H]1C[C@H](N)[C@H](O)[C@H](C)O1` [doxorubicin], the “FR (fold resistance), control study” value was 2.4 in the data set with SW620 Ad300 (coadministration with the P-gp inhibitor verapamil) and 22 with SW620 Ad300 (doxorubicin alone).

Consider `CC[C@H](C)[C@@H]1OC(=O)C(C)(C)[C@@H](O)[C@@H](Cc2ccccc2)OC(=O)[C@H](C(C)C)OC(=O)[C@@H](NC(=O)c2cccc(NC=O)c2O)[C@H](C)OC1=O` [compound 1, neoantimycin], for which, in data set [1], the “K-Ras PM mislocalization Emax” value amounted to 0.60 ± 0.03 and the IC50 worked out at 2.9 ± 0.7 nM. Moreover, in the data set on SW620, the IC50 amounted to 60 nM. Further, in the data set on SW620 Ad300, the “FR (fold resistance)” value is 3.8 and the IC50 was found to be 230 nM. For the same molecule, the “increased cytotoxicity toward K-Ras mutated A549 versus non-mutated H522” value in the data set on A549 versus H522 was found to be 50 fold.

In the case of `CCC(C)C1OC(=O)C(NC(=O)c2cccc(NC=O)c2O)C(C)OC(=O)C(C(C)CC)OC(=O)C(C)(C)C(O)C(Cc2ccccc2)OC1=O` (stereo not drawn) [compound 3, neoantimycin G], the “K-Ras PM mislocalization Emax” value in data set [1] is on record as 0.62 ± 0.01. Further, the IC50 came to 7.9 ± 0.5 nM in data set [1], 40 nM with SW620 and 260 nM in the data set on SW620 Ad300.

Turning to `CC[C@H](C)[C@@H]1OC(=O)C(C)(C)C(=O)[C@@H](Cc2ccccc2)OC(=O)[C@H](C(C)C)OC(=O)[C@@H](NC(=O)c2cccc(NC=O)c2O)[C@@H](C)OC1=O` [compound 4, neoantimycin H], in data set [1], the “K-Ras PM mislocalization Emax” value is 0.60 ± 0.02 and the IC50 stood at 6.4 ± 0.5 nM. Also, in the data set on SW620, the IC50 worked out at 70 nM. Further, in the data set with SW620 Ad300, the “FR (fold resistance)” value is given as 2.7 and the IC50 stood at 190 nM.

Regarding `CCCCCC[C@H]1C(=O)O[C@H](C)[C@H](NC(=O)c2cccc(NC=O)c2O)C(=O)O[C@@H](C)[C@@H]1OC(=O)C(C)C` [compound 5, antimycin A2a, reference compound], in data set [1], the “K-Ras PM mislocalization Emax” value is 0.78 ± 0.02 and the IC50 was determined as 7.9 ± 0.3 nM. In addition, the 50% inhibitory concentration (IC50) in the data set with SW620 was found to be 150 nM. Also, in the data set with SW620 Ad300, the “FR (fold resistance)” value is 2.1 and the IC50 is 320 nM. Also, in the data set on A549 versus H522, the “increased cytotoxicity toward K-Ras mutated A549 versus non-mutated H522” value is reported as above 26 fold.

As to `CCC(C)[C@@H]1OC(=O)[C@H](C)OC(=O)[C@@H](NC(=O)c2cccc(NC=O)c2O)[C@@H](C)OC(=O)[C@H](CC(C)C)OC(=O)C(C)(C)C(=O)[C@H](CC(C)C)NC1=O` (stereo partly drawn) [compound 7, respirantin, reference compound], in data set [1], the “K-Ras PM mislocalization Emax” value is 0.78 ± 0.02 and the IC50 amounted to 0.7 ± 0.1 nM. The IC50 in the data set on SW620 was 10 nM. In addition, in the data set on SW620 Ad300, the “FR (fold resistance)” value came to 3.0 and the half-inhibitory concentration (IC50) is 30 nM. The “increased cytotoxicity toward K-Ras mutated A549 versus non-mutated H522” value in the data set on A549 versus H522 is on record as above 33 fold.
